Assay results reported in patent US20050101595A1, “N-containing cycloalkyl-substituted amino-thiazole derivatives and pharmaceutical compositions for inhibiting cell proliferation and methods for their use” (PFIZER INC., priority 2003, published 2005).
Structures can show the parent of a compound that is named as a salt. Where two headings read alike, the source gives them in different places.

How the values were obtained:
CDK2/Cyclin A = CDK2/Cyclin A (Homo sapiens, UniProt P24941); test: Inhibition of CDK2/Cyclin A Retinoblastoma Kinase Activity; format: biochemical; settings: apparent Ki, CDK2/proteolyzed cyclin A, Rb fragment substrate, 25 μM ATP
Method in brief: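 Radiometric filter-binding readout of phosphate transfer to an Rb substrate fragment by purified CDK2/truncated cyclin A at 10 or 19 nM. Run at pH 7.4 with 25 μM ATP, 30 °C, 60–75 min, linear rates; background without enzyme subtracted, Ki from competitive-inhibition models.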

[1] = target: human CDK4 and genetically truncated (1-264) cyclin D3 (Homo sapiens, UniProt P11802); test: Inhibition of CDK4/Cyclin D Retinoblastoma Kinase Activity; format: biochemical; settings: apparent Ki, CDK4/truncated cyclin D3, Rb fragment substrate, 25 μM ATP
Sequence of human CDK4 and genetically truncated (1-264) cyclin D3 (P11802 whole entry, the tested form may be a part): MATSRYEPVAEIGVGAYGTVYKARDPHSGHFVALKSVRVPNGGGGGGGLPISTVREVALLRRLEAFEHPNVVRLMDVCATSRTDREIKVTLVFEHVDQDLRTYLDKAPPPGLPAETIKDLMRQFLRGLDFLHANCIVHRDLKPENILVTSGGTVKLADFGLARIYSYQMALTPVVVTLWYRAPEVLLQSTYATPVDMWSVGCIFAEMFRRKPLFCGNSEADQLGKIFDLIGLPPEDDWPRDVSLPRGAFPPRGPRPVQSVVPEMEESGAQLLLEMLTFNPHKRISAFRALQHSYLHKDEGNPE
Sequence of human CDK4 and genetically truncated (1-264) cyclin D3 (P30281 1-264 partner): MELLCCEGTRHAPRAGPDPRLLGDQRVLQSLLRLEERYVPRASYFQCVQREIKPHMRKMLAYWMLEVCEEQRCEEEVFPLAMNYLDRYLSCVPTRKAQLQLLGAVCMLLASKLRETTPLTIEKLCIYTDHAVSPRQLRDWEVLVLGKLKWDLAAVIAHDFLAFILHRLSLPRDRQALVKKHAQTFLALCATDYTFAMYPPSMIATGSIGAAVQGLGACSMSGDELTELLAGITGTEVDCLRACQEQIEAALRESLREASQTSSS
Method in brief: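 Apparent Ki values come from competitive or competitive tight-binding inhibition fits of background-corrected 32P/33P incorporation into His-tagged Rb fragment (386-928), captured on nitrocellulose. Reaction: 5 nM insect-cell-expressed human CDK4 with cyclin D3 (1-264), 25 μM ATP, pH 7.4 HEPES, 2% DMSO, 30° C., 20 min, extended to 60 min for tight-binding inhibitors.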

HCT-116 cell line = test: Inhibition of cell growth, tetrazolium salt (MTT) assay; format: cell-based; settings: Homo sapiens, HCT-116, 120 h, MTT, three to five days, read-out: HCT-116 IC50
Method in brief: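 McCoy's 5A cultures; 4 h pre-incubation; compound dilutions in 0.5% v/v DMSO; 3–5 d, 37° C, 5% CO2; MTT 0.2 mg/mL final, 4 h; formazan dissolved in DMSO, A540; vs 0.5% DMSO vehicle.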

Ki (CDK2/Cyclin A)	Ki [1]	IC50 (HCT-116 cell line; first HCT-116 column (c4))	IC50 (HCT-116 cell line; second HCT-116 column (c5))	SMILES
2.8 nM	3 nM	460 nM	> 500 nM	Nc1nc(NC2CCN(S(=O)(=O)CCCSc3ccncc3)CC2)sc1C(=O)c1c(F)cccc1F [Example K23, 1-(4-Amino-2-{1-[3-(pyridin-4-ylsulfanyl)-propane-1-sulfonyl]-piperidin-4-ylamino}-thiazol-5-yl)-1-(2,6-difluoro-phenyl)-methanone.]
5.9 nM	2 nM	> 50 nM	> 50 nM	CN(C)CCSCCCS(=O)(=O)N1CCC(Nc2nc(N)c(C(=O)c3c(F)cccc3F)s2)CC1 [Example K24, 1-(4-Amino-2-{1-[3-(2-dimethylamino-ethylsulfanyl)-propane-1-sulfonyl]-piperidin-4-ylamino}-thiazol-5-yl)-1-(2,6-difluoro-phenyl)-methanone.]
4.4 nM	1.4 nM	880 nM	2600 nM	COCCNCCS(=O)(=O)N1CCC(Nc2nc(N)c(C(=O)c3c(F)cccc3F)s2)CC1 [Example K25, (4-Amino-2-{1-[2-(2-methoxy-ethylamino}-ethanesulfonyl]-piperidin-4-ylamino}-thiazol-5-yl)-(2,6-difluoro-phenyl)-methanone Trifluoroacetic Acid Salt.]
10 nM	2.8 nM	> 5000 nM	> 5000 nM	Nc1nc(NC2CCN(S(=O)(=O)CCNCCN3CCCC3)CC2)sc1C(=O)c1c(F)cccc1F [Example K28, (4-Amino-2-{1-[2-(2-pyrrolidin-1-yl-ethylamino)-ethanesulfonyl]-piperidin-4-ylamino}-thiazol-5-yl)-(2,6-difluoro-phenyl)-methanone Trifluoroacetic Acid Salt.]
3.7 nM	1.6 nM	160 nM	510 nM	Nc1nc(NC2CCN(S(=O)(=O)CCN3CCCC3c3ccccc3)CC2)sc1C(=O)c1c(F)cccc1F (stereo not shown) [Example K29, Trifluoroacetic Acid Salt]
9.4 nM	2.4 nM	190 nM	620 nM	CN(CCS(=O)(=O)N1CCC(Nc2nc(N)c(C(=O)c3c(F)cccc3F)s2)CC1)C1CCCC1 [Example K30, (4-Amino-2-{1-[2-(cyclopentyl-methyl-amino)-ethanesulfonyl]-piperidin-4-ylamino}-thiazol-5-yl)-(2,6-difluoro-phenyl)-methanone Trifluoroacetic Acid Salt.]
5.5 nM	4.3 nM	> 5000 nM	> 5000 nM	Nc1nc(NC2CCN(S(=O)(=O)CCNC3CCS(=O)(=O)C3)CC2)sc1C(=O)c1c(F)cccc1F (stereo not shown) [Example K31, (4-Amino-2-{1-[2-(1,1-dioxo-tetrahydro-1-lamda-6-thiophen-3-ylamino)-ethanesulfonyl]-piperidin-4-ylamino}-thiazol-5-yl)-(2,6-difluoro-phenyl)-methanone Trifluoroacetic Acid Salt.]
6.2 nM	2.1 nM	190 nM	1400 nM	Nc1nc(NC2CCN(S(=O)(=O)CCN3CC=CCC3)CC2)sc1C(=O)c1c(F)cccc1F [Example K32, (4-Amino-2-{1-[2-(3,6-dihydro-2H-pyridin-1-yl)-ethanesulfonyl]-piperidin-4-ylamino}-thiazol-5-yl)-(2,6-difluoro-phenyl)-methanone Trifluoroacetic Acid Salt.]
5.6 nM	0.64 nM	650 nM	5000 nM	CNCCS(=O)(=O)N1CCC(Nc2nc(N)c(C(=O)c3c(F)cccc3F)s2)CC1 [Example K33, {4-Amino-2-[1-(2-methylamino-ethanesulfonyl)-piperidin-4-ylamino]-thiazol-5-yl}-(2,6-difluoro-phenyl)-methanone Trifluoroacetic Acid Salt.]
6 nM	5.4 nM	280 nM	1200 nM	Nc1nc(NC2CCN(S(=O)(=O)CCn3cccc3)CC2)sc1C(=O)c1c(F)cccc1F [Example K34, {4-Amino-2-[1-(2-pyrrol-1-yl-ethanesulfonyl)-piperidin-4-ylamino]-thiazol-5-yl}-(2,6-difluoro-phenyl)-methanone Trifluoroacetic Acid Salt.]
3 nM	1.1 nM	140 nM	450 nM	Nc1nc(NC2CCN(S(=O)(=O)CCN3CCCC3)CC2)sc1C(=O)c1c(F)cccc1F [Example K35, 1-{4-Amino-2-[1-(2-pyrrolidin-1-yl-ethanesulfonyl)-piperidin-4-ylamino]-thiazol-5-yl}-1-(2,6-difluoro-phenyl)-methanone.]
7.5 nM	6.6 nM	650 nM	1900 nM	Nc1nc(NC2CCN(S(=O)(=O)CCN3CC=CC3)CC2)sc1C(=O)c1c(F)cccc1F [Example K36, (4-Amino-2-{1-[2-(2,5-dihydro-pyrrol-1-yl)-ethanesulfonyl]-piperidin-4-ylamino}-thiazol-5-yl)-(2,6-difluoro-phenyl)-methanone.]
7 nM	3.2 nM	310 nM	1300 nM	CN(CCS(=O)(=O)N1CCC(Nc2nc(N)c(C(=O)c3c(F)cccc3F)s2)CC1)c1ccccc1 [Example K37, (4-Amino-2-{1-[2-(methyl-phenyl-amino)-ethanesulfonyl]-piperidin-4-ylamino}-thiazol-5-yl)-(2,6-difluoro-phenyl)-methanone Trifluoroacetic Acid Salt.]
7.9 nM	6.4 nM	460 nM	3000 nM	Nc1nc(NC2CCN(S(=O)(=O)CCSC3CCCC3)CC2)sc1C(=O)c1c(F)cccc1F [Example K38, {4-Amino-2-[1-(2-cyclopentylsulfanyl-ethanesulfonyl)-piperidin-4-ylamino]-thiazol-5-yl}-(2,6-difluoro-phenyl)-methanone Trifluoroacetic Acid Salt.]
1.4 nM	1.8 nM	44 nM	170 nM	CN(CCS(=O)(=O)N1CCC(Nc2nc(N)c(C(=O)c3c(F)cccc3F)s2)CC1)Cc1ccccc1 [Example K39, (4-Amino-2-{1-[2-(benzyl-methyl-amino)-ethanesulfonyl]-piperidin-4-ylamino}-thiazol-5-yl)-(2,6-difluoro-phenyl)-methanone]
0.63 nM	1.9 nM	70 nM	170 nM	Cc1cccc(CNCCS(=O)(=O)N2CCC(Nc3nc(N)c(C(=O)c4c(F)cccc4F)s3)CC2)c1 [Example K41, (4-Amino-2-{1-[2-(3-methyl-benzylamino)-ethanesulfonyl]-piperidin-4-ylamino}-thiazol-5-yl)-(2,6-difluoro-phenyl)-methanone]
1 nM	1.9 nM	50 nM	150 nM	CC[C@H](NCCS(=O)(=O)N1CCC(Nc2nc(N)c(C(=O)c3c(F)cccc3F)s2)CC1)c1ccccc1 [Example K42, (4-Amino-2-{1-[2-(1S-phenyl-propylamino)-ethanesulfonyl]-piperidin-4-ylamino}-thiazol-5-yl)-(2,6-difluoro-phenyl)-methanone]
0.49 nM	2.5 nM	100 nM	360 nM	CC1CC(NCCS(=O)(=O)N2CCC(Nc3nc(N)c(C(=O)c4c(F)cccc4F)s3)CC2)CC(C)(C)C1 (stereo not shown) [Example K44]
0.82 nM	1 nM	50 nM	170 nM	Nc1nc(NC2CCN(S(=O)(=O)CCNCc3cccc(F)c3F)CC2)sc1C(=O)c1c(F)cccc1F [Example K45, (4-Amino-2-{1-[2-(2,3-difluoro-benzylamino)-ethanesulfonyl]-piperidin-4-ylamino}-thiazol-5-yl)-(2,6-difluoro-phenyl)-methanone]
0.81 nM	2.1 nM	130 nM	260 nM	CC[C@@H](NCCS(=O)(=O)N1CCC(Nc2nc(N)c(C(=O)c3c(F)cccc3F)s2)CC1)c1ccccc1 [Example K46, (4-Amino-2-{1-[2-(1 R-phenyl-propylamino)-ethanesulfonyl]-piperidin-4-ylamino}-thiazol-5-yl)-(2,6-difluoro-phenyl)-methanone]
5 nM	1.3 nM	280 nM	800 nM	Nc1nc(NC2CCN(S(=O)(=O)CCN(CC3CC3)CC3CC3)CC2)sc1C(=O)c1c(F)cccc1F [Example K54, (4-Amino-2-{1-[2-(bis-cyclopropylmethyl-amino)-ethanesulfonyl]-piperidin-4-ylamino}-thiazol-5-yl)-(2,6-difluoro-phenyl)-methanone]
0.62 nM	0.3 nM	78 nM	> 500 nM	CN(C)CCSc1ccc(S(=O)(=O)N2CCC(Nc3nc(N)c(C(=O)c4c(F)cccc4F)s3)CC2)cn1 [Example L1, 1-(4-Amino-2-{1-[6-(2-dimethylamino-ethylsulfanyl)-pyridine-3-sulfonyl]-piperidin-4-ylamino}-thiazol-5-yl)-1-(2,6-difluoro-phenyl)-methanone Dihydrochloride.]
